Laboratory results: patent US8748453B2, “Substituted heterocyclic compounds as kinases inhibitors and methods of use thereof” (Medolution Limited, priority 2009, dated 2014)

Legend:
[1] = Pharmacokinetics after IV administration to Sprague-Dawley rats; settings: rat, in vivo; for half-life: read-out: mean elimination half-life (T1/2) (converted); for clearance: read-out: mean Clearance (CL) (converted)
ErbB2/HER2 = biological target: T1, ErbB2/HER2 (Homo sapiens, UniProt P04626); experiment: Radiometric kinase assay, ErbB2/HER2; assay type: biochemical; settings: read-out: potency (IC50) over Her-2 assay
T1 construct: Recombinant catalytic domain, amino acids 679-1255, GST tagged, purified from insect cells; GST; host or cells: insect cells
T1 sequence (P04626 679-1255): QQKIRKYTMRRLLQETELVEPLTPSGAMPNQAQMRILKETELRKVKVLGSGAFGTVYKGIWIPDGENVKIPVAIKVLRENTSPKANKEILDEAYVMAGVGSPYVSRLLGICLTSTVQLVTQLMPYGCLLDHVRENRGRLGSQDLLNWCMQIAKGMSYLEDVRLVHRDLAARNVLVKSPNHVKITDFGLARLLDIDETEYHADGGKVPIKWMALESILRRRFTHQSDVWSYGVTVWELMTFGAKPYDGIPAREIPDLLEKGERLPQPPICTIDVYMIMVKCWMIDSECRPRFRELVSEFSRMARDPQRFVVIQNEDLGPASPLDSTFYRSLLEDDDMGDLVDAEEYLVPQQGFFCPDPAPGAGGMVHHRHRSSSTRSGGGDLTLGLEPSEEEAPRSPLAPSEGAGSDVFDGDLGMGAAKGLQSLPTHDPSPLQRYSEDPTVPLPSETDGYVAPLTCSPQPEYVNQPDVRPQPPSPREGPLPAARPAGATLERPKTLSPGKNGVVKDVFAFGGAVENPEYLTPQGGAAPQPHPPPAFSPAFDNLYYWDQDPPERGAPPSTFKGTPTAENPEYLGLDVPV
Procedure: (§1) Base Reaction buffer: 20 mM Hepes (pH 7.5), 10 mM MgCl2, 1 mM EGTA, 0.02% Brij35, 0.02 mg/ml BSA, 0.1 mM Na3VO4, 2 mM DTT, 1% DMSO. *Required cofactors are added individually to each kinase reaction
(§2) Prepare indicated substrate in freshly prepared Base Reaction Buffer • Deliver any required cofactors to the substrate solution above • Deliver indicated kinase into the substrate solution and gently mix • Deliver compounds in DMSO into the kinase reaction mixture • Deliver ^33P-ATP (specific activity 0.01 μCi/μl final) into the reaction mixture to initiate the reaction.
ErbB2/HER2—Genbank Accession # X03363. […] Final concentration in assay=50 nM. Substrate: pEY. Peptide sequence: Poly Glu-Tyr, 4:1 ratio. Final concentration in assay=0.2 mg·mL. 2 mM MnCl2 is added as a cofactor to the reaction mixture
(§3) Compounds in accordance with the practice of the present invention were tested in kinase assays employing high throughput radiometric techniques and nanoliter volume technology (Reaction Biology Corporation, Malvern Pa.).

EGFR = biological target: T2, EGFR (Homo sapiens, UniProt P00533); experiment: Radiometric kinase assay, EGFR; assay type: biochemical; settings: read-out: potency (IC50) over EGFR assay
T2 construct: Recombinant catalytic domain, amino acids 668-1210, GST tagged, purified from insect cells; GST; host or cells: insect cells
T2 sequence (P00533 668-1210): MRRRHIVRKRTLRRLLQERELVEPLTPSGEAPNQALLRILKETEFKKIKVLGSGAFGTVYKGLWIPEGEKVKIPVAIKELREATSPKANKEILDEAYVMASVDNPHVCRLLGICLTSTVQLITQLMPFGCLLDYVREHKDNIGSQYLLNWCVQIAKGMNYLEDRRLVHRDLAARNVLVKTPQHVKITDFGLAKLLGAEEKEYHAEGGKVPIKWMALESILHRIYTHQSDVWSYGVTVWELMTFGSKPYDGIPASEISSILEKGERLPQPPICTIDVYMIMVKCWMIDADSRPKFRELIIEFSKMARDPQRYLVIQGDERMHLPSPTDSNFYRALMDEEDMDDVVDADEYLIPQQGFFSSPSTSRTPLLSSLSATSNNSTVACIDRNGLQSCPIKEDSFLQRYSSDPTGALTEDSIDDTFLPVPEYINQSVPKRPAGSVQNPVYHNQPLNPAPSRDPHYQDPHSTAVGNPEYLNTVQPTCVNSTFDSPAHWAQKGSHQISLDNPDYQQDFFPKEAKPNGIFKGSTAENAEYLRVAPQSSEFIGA
Procedure: as §1, §2
Activated in vitro via autophosphorylation. Final concentration in assay=4 nM. Substrate: pEY. Peptide sequence: Poly Glu-Tyr, 4:1 ratio. Final concentration in assay=0.2 mg·mL. 2 mM MnCl2 is added as a cofactor to the reaction mixture
as §3

NCI-H1975 = experiment: Human tumor cell-line growth assay, NCI-H1975; assay type: cell-based; settings: NCI-H1975 (EGFR mutant L858R/T790M), 10-dose, 3-fold dilution starting at 10 μM, read-out: IC50 growth inhibition NCI-H1975
Procedure: (§4) Invention compounds were tested in human tumor cell-line growth assays.

A549 = experiment: Human tumor cell-line growth assay, A549; assay type: cell-based; settings: 10-dose, 3-fold dilution starting at 10 μM, read-out: IC50 growth inhibition A549
Procedure: as §4

NCI-H1650 = experiment: Human tumor cell-line growth assay, NCI-H1650; assay type: cell-based; settings: NCI-H1650 (EGFR mutant E746-A750), 10-dose, 3-fold dilution starting at 10 μM, read-out: IC50 growth inhibition NCI-H1650
Procedure: as §4

BT-474 = experiment: Human tumor cell-line growth assay, BT-474; assay type: cell-based; settings: BT-474 (overexpressing ErbB2), 10-dose, 3-fold dilution starting at 10 μM, read-out: IC50 growth inhibition BT-474
Procedure: as §4

A431 = experiment: Human tumor cell-line growth assay, A431; assay type: cell-based; settings: A-431, A431 (overexpressing EGFR), 10-dose, 3-fold dilution starting at 10 μM, read-out: IC50 growth inhibition A431
Procedure: as §4

SKBR3 = experiment: Human tumor cell-line growth assay, SKBR3; assay type: cell-based; settings: SK-BR-3, SKBR3 (overexpressing EGFR and ErbB2), 10-dose, 3-fold dilution starting at 10 μM, read-out: IC50 growth inhibition SKBR3
Procedure: as §4

Structure (SMILES) | half-life [1] | clearance [1] | IC50 (ErbB2/HER2) | IC50 (EGFR) | IC50 (NCI-H1975) | IC50 (A549) | IC50 (NCI-H1650) | IC50 (BT-474) | IC50 (A431) | IC50 (SKBR3)
[2H]C([2H])([2H])N(C/C=C/C(=O)Nc1cc2c(Nc3ccc(OCc4ccccn4)c(Cl)c3)c(C#N)cnc2cc1OCC)C([2H])([2H])[2H] [Compound A, (E)-N-{4-[3-chloro-4-(2-pyridinylmethoxy)aniline]-3-cyano-7-ethoxy-6-quinolinyl}-4-(dimethyl-d6-amino)-2-butenamide] | 6.59 h | – | – | – | – | – | – | – | – | –
[2H]C([2H])([2H])N(C/C=C/C(=O)Nc1cc2c(Nc3cccc(C#C)c3)c(C#N)cnc2cc1OCC)C([2H])([2H])[2H] [Compound B, (E)-N-(3-cyano-7-ethoxy-4-(3-ethynylphenylamino)quinolin-6-yl)-4-(dimethyl-d6-amino)but-2-enamide] | 8.76 h | 47.1 mL/min/kg | < 1 µM | < 1 µM | – | – | – | – | – | –
C#Cc1cccc(Nc2c(C#N)cnc3cc(OCC)c(NC(=O)/C=C/CN(C)C)cc23)c1 [Compound C, (E)-N-(3-cyano-7-ethoxy-4-(3-ethynylphenylamino)quinolin-6-yl)-4-(dimethylamino)but-2-enamide] | 5.37 h | 59.7 mL/min/kg | < 1 µM | < 1 µM | < 10 µM | < 1 µM | < 10 µM | < 1 µM | < 1 µM | < 1 µM
[2H]C([2H])([2H])N(C/C=C/C(=O)Nc1cc2c(Nc3ccc(OCc4ccccn4)c(Cl)c3)c(C#N)cnc2cc1OCCOC)C([2H])([2H])[2H] [Example 7] | – | – | < 1 µM | < 1 µM | – | – | – | – | – | –
CCOc1cc2ncc(C#N)c(Nc3ccc(OCc4ccccn4)c(Cl)c3)c2cc1NC(=O)/C=C/CN(C)C [HKI272, reference compound] | 5.28 h | – | – | – | – | – | – | – | – | –
